Results from patent US11919901B2 (Syndax Pharmaceuticals, Inc., priority 2021, dated 2024).

Columns and labels:
[1] = target: hERG (Homo sapiens (Human), UniProt Q12809); experiment: Patch clamp assay (hERG tail currents, whole-cell); format: cell-based; conditions: hERG transfected HEK 293 cells; for hERG % Remaining 30 μM: 30 μM compound; for hERG % Remaining 10 μM: 10 μM compound
[2] = target: Menin-MLL (Homo sapiens (Human), UniProt O00255); experiment: Determination of binding constants (Ki) to Menin-MLL (HTRF); conditions: HTRF, 0.25 nM H-FL-Menin, 3.2 nM FITC-MLL-4-43, 24 hr incubation; for Ki: read-out: Menin-MLL Ki HTRF Assay: Ki
Sequence of Menin-MLL (O00255 whole entry): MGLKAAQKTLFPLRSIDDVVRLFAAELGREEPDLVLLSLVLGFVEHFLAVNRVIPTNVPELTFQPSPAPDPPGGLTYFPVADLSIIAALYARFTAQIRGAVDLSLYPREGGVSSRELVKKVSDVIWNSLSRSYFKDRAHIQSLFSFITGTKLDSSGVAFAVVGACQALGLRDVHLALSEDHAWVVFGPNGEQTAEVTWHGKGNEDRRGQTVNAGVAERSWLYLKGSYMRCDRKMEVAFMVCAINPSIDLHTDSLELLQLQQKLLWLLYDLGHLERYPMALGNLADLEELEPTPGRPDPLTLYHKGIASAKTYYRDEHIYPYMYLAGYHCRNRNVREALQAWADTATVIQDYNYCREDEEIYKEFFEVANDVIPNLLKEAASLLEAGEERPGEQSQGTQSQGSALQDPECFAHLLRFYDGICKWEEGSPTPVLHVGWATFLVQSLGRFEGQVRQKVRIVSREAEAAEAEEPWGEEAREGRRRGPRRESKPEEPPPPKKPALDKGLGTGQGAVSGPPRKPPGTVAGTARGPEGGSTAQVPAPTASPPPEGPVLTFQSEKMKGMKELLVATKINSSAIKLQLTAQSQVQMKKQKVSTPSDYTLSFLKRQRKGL

Sequence of hERG (Q12809 whole entry): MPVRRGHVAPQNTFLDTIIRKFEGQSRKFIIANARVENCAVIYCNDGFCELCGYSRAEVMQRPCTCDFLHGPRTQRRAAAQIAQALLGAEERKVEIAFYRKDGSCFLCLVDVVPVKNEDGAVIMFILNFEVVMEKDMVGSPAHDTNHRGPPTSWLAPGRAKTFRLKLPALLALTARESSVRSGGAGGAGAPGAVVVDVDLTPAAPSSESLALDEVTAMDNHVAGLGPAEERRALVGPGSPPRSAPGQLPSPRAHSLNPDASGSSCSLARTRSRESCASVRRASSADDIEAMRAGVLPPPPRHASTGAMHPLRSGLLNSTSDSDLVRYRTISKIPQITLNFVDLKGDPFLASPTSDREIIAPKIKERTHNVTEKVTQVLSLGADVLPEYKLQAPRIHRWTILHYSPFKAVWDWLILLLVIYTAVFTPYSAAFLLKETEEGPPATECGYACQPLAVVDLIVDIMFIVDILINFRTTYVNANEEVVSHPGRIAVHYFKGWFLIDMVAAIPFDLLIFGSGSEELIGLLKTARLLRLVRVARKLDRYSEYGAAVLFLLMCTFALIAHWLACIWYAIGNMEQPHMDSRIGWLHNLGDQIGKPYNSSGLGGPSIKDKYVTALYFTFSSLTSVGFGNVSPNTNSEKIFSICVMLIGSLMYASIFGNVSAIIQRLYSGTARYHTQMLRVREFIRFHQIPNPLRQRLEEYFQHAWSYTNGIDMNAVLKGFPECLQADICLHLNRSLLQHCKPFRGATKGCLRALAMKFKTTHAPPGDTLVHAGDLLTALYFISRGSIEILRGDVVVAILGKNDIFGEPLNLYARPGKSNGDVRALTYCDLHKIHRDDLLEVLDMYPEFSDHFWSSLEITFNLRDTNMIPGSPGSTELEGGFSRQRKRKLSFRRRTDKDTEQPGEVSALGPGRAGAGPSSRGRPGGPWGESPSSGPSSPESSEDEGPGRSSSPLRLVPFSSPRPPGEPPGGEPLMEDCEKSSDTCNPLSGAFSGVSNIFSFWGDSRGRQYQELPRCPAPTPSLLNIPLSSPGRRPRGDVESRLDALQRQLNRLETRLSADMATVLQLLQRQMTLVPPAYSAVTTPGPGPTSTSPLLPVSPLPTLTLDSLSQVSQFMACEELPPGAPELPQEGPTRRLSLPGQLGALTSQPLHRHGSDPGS

Row | SMILES | hERG % Remaining 30 μM [1] | Ki [2] [nM] | EC50 [2] [nM] | other results
1 | CCNS(=O)(=O)N[C@@H]1CC[C@@H](CN2CCC3(CC2)CN(c2ncnnc2Oc2ccc(F)cc2C(=O)N(CC(F)(F)F)C(C)C)C3)OC1 (single isomer, unassigned) [Compound 193] | +++ (“+++” means ≥66%) | < 1 |  | IC50 [1]: ≥ 50000 nM
2 | CCN(C(=O)c1cc(F)ccc1Oc1cncnc1N1CC2(CCN(C[C@@H]3CC[C@@H](NS(C)(=O)=O)CO3)CC2)C1)C(C)C [Compound 1, N-ethyl-5-fluoro-N-isopropyl-2-((4-(7-(((2S,5R)-5-(methylsulfonamido)tetrahydro-2H-pyran-2-yl)methyl)-2,7-diazaspiro[3.5]nonan-2-yl)pyrimidin-5-yl)oxy)benzamide] | ++ (“++” means ≥33% and <66%) | < 1 | < 50 | hERG % Remaining 10 μM [1]: +++ (“+++” means ≥66%)
3 | CCN(C(=O)c1cc(F)ccc1Oc1cncnc1N1CC2(CCN(C[C@@H]3CC[C@@H](NS(=O)(=O)CC)CO3)CC2)C1)C(C)C [Compound 2, N-ethyl-2-((4-(7-(((2S,5R)-5-(ethylsulfonamido)tetrahydro-2H-pyran-2-yl)methyl)-2,7-diazaspiro[3.5]nonan-2-yl)pyrimidin-5-yl)oxy)-5-fluoro-N-isopropylbenzamide] | +++ (“+++” means ≥66%) | < 1 | < 50 | hERG % Remaining 10 μM [1]: +++ (“+++” means ≥66%)
4 | CCN(C(=O)c1cc(F)ccc1Oc1cncnc1N1CC2(CCN(C[C@@H]3CC[C@@H](NS(=O)(=O)C4CC4)CO3)CC2)C1)C(C)C [Compound 4, 2-((4-(7-(((2S,5R)-5-(cyclopropanesulfonamido)tetrahydro-2H-pyran-2-yl)methyl)-2,7-diazaspiro[3.5]nonan-2-yl)pyrimidin-5-yl)oxy)-N-ethyl-5-fluoro-N-isopropylbenzamide] | +++ (“+++” means ≥66%) | < 1 | < 50 | hERG % Remaining 10 μM [1]: +++ (“+++” means ≥66%); IC50 [1]: ≥ 50000 nM
5 | CCN(C(=O)c1cc(F)ccc1Oc1cncnc1N1CC2(CCN(C[C@@H]3CC[C@@H](NS(=O)(=O)C4CCC4)CO3)CC2)C1)C(C)C [Compound 6, 2-((4-(7-(((2S,5R)-5-(cyclobutanesulfonamido)tetrahydro-2H-pyran-2-yl)methyl)-2,7-diazaspiro[3.5]nonan-2-yl)pyrimidin-5-yl)oxy)-N-ethyl-5-fluoro-N-isopropylbenzamide] | ++ (“++” means ≥33% and <66%) | < 1 | < 50 | hERG % Remaining 10 μM [1]: +++ (“+++” means ≥66%)
6 | CC(C)N(CC(F)F)C(=O)c1cc(F)ccc1Oc1cncnc1N1CC2(CCN(C[C@@H]3CC[C@@H](NS(=O)(=O)N4CC(OCc5ccccc5)C4)CO3)CC2)C1 [Compound 236, 2-((4-(7-(((2S,5R)-5-((3-(Benzyloxy)azetidine)-1-sulfonamido)tetrahydro-2H-pyran-2-yl)methyl)-2,7-diazaspiro[3.5]nonan-2-yl)pyrimidin-5-yl)oxy)-N-(2,2-difluoroethyl)-5-fluoro-N-isopropylbenzamide] |  | < 1 |  | 
7 | CC(C)N(CC(F)F)C(=O)c1cc(F)ccc1Oc1cncnc1N1CC2(CCN(C[C@@H]3CC[C@@H](NS(=O)(=O)N4CC(O)C4)CO3)CC2)C1 [Compound 237, N-(2,2-Difluoroethyl)-5-fluoro-2-((4-(7-(((2S,5R)-5-((3-hydroxyazetidine)-1-sulfonamido)tetrahydro-2H-pyran-2-yl)methyl)-2,7-diazaspiro[3.5]nonan-2-yl)pyrimidin-5-yl)oxy)-N-isopropylbenzamide] |  | < 1 |  | 
8 | CC(C)N(CC(F)F)C(=O)c1cc(F)ccc1Oc1cncnc1N1CC2(CCN(C[C@@H]3CC[C@@H](NS(=O)(=O)N(C)CCOCc4ccccc4)CO3)CC2)C1 [Compound 238] |  | < 1 |  | 
9 | CCS(=O)(=O)N[C@@H]1CC[C@@H](CN2CCC3(CC2)CN(c2ncncc2Oc2ccc(F)cc2C(=O)N(CCC(F)F)C(C)C)C3)OC1 [Compound 242, N-(3,3-Difluoropropyl)-2-((4-(7-(((2S,5R)-5-(ethylsulfonamido)tetrahydro-2H-pyran-2-yl)methyl)-2,7-diazaspiro[3.5]nonan-2-yl)pyrimidin-5-yl)oxy)-5-fluoro-N-isopropylbenzamide] |  | < 1 | < 50 | 
10 | CCS(=O)(=O)N[C@@H]1CC[C@@H](CN2CCC3(CC2)CN(c2ncncc2Oc2ccc(F)cc2C(=O)N(C(C)C)C2CC(F)C2)C3)OC1 (stereo partly drawn) [Compound 244, 2-((4-(7-(((2S,5R)-5-(ethylsulfonamido)tetrahydro-2H-pyran-2-yl)methyl)-2,7-diazaspiro[3.5]nonan-2-yl)pyrimidin-5-yl)oxy)-5-fluoro-N-((1s,3s)-3-fluorocyclobutyl)-N-isopropylbenzamide] | ++ (“++” means ≥33% and <66%) |  |  | hERG % Remaining 10 μM [1]: +++ (“+++” means ≥66%)
11 | CC(C)N(C(=O)c1cc(F)ccc1Oc1cncnc1N1CC2(CCN(C[C@@H]3CC[C@@H](NS(=O)(=O)C4CC4)CO3)CC2)C1)C1COC1 [Compound 247, 2-((4-(7-(((2S,5R)-5-(Cyclopropanesulfonamido)tetrahydro-2H-pyran-2-yl)methyl)-2,7-diazaspiro[3.5]nonan-2-yl)pyrimidin-5-yl)oxy)-5-fluoro-N-isopropyl-N-(oxetan-3-yl)benzamide] |  | < 1 | < 50 | 
12 | CCS(=O)(=O)N[C@@H]1CC[C@@H](CN2CCC3(CC2)CN(c2ncncc2Oc2ccc(F)cc2C(=O)N(C(C)C)C2CCOCC2)C3)OC1 [Compound 250, 2-((4-(7-(((2S,5R)-5-(Ethylsulfonamido)tetrahydro-2H-pyran-2-yl)methyl)-2,7-diazaspiro[3.5]nonan-2-yl)pyrimidin-5-yl)oxy)-5-fluoro-N-isopropyl-N-(tetrahydro-2H-pyran-4-yl)benzamide] |  |  | < 50 | 
13 | CCS(=O)(=O)N[C@@H]1CC[C@@H](CN2CCC3(CC2)CN(c2ncncc2Oc2ccc(F)cc2C(=O)N(C(C)C)[C@@H]2C[C@@H]4CC[C@H]2O4)C3)OC1 [Compound 251, N-((lR,2R,4S)-7-Oxabicyclo[2.2.1]heptan-2-yl)-2-((4-(7-(((2S,5R)-5-(ethylsulfonamido)tetrahydro-2H-pyran-2-yl)methyl)-2,7-diazaspiro[3.5]nonan-2-yl)pyrimidin-5-yl)oxy)-5-fluoro-N-isopropylbenzamide] |  | < 1 |  | 
14 | CCS(=O)(=O)N[C@@H]1CC[C@@H](CN2CCC3(CC2)CN(c2ncncc2Oc2ccc(F)cc2C(=O)N(C(C)C)C2CC4(COC4)C2)C3)OC1 [Compound 252, 2-((4-(7-(((2S,5R)-5-(Ethylsulfonamido)tetrahydro-2H-pyran-2-yl)methyl)-2,7-diazaspiro[3.5]nonan-2-yl)pyrimidin-5-yl)oxy)-5-fluoro-N-isopropyl-N-(2-oxaspiro[3.3]heptan-6-yl)benzamide] |  | < 1 |  | 
15 | CCS(=O)(=O)N[C@@H]1CC[C@@H](CN2CCC3(CC2)CN(c2ncncc2Oc2ccc(F)cc2C(=O)N(C(C)C)[C@H]2[C@@H]4COC[C@@H]42)C3)OC1 [Compound 253, N-((1R,5S,6r)-3-c)-2-((4-(7-(((2S,5R)-5-(ethylsulfonamido)tetrahydro-2H-pyran-2-yl)methyl)-2,7-diazaspiro[3.5]nonan-2-yl)pyrimidin-5-yl)oxy)-5-fluoro-N-isopropylbenzamide] |  | < 1 |  | 
16 | COCCN(C(=O)c1cc(F)ccc1Oc1cncnc1N1CC2(CCN(C[C@@H]3CC[C@@H](NS(=O)(=O)c4ccccc4)CO3)CC2)C1)C(C)C [Compound 254, 5-Fluoro-N-isopropyl-N-(2-methoxyethyl)-2-((4-(7-(((2S,5R)-5-(phenylsulfonamido)tetrahydro-2H-pyran-2-yl)methyl)-2,7-diazaspiro[3.5]nonan-2-yl)pyrimidin-5-yl)oxy)benzamide] |  | < 1 | < 50 | 
17 | CCS(=O)(=O)N[C@@H]1CC[C@@H](CN2CCC3(CC2)CN(c2ncncc2Oc2ccc(F)cc2C(=O)N(C[C@@H](O)CO)C(C)C)C3)OC1 [Compound 255, N-((R)-2,3-Dihydroxypropyl)-2-((4-(7-(((2S,5R)-5-(ethylsulfonamido)tetrahydro-2H-pyran-2-yl)methyl)-2,7-diazaspiro[3.5]nonan-2-yl)pyrimidin-5-yl)oxy)-5-fluoro-N-isopropylbenzamide] |  | < 1 | < 50 | 
18 | CCS(=O)(=O)N[C@@H]1CC[C@@H](CN2CCC3(CC2)CN(c2ncncc2Oc2ccc(F)cc2C(=O)N(C(C)C)[C@H]2C[C@H](O)C2)C3)OC1 [Compound 259, 2-((4-(7-(((2S,5R)-5-(Ethylsulfonamido)tetrahydro-2H-pyran-2-yl)methyl)-2,7-diazaspiro[3.5]nonan-2-yl)pyrimidin-5-yl)oxy)-5-fluoro-N-((1r,3r)-3-hydroxycyclobutyl)-N-isopropylbenzamide] |  | < 1 | < 50 | 
19 | CCS(=O)(=O)N[C@@H]1CC[C@@H](CN2CCC3(CC2)CN(c2ncncc2Oc2ccc(F)cc2C(=O)N(c2ccccc2)C(C)C)C3)OC1 [Compound 260, 2-((4-(7-(((2S,5R)-5-(Ethylsulfonamido)tetrahydro-2H-pyran-2-yl)methyl)-2,7-diazaspiro[3.5]nonan-2-yl)pyrimidin-5-yl)oxy)-5-fluoro-N-isopropyl-N-phenylbenzamide] |  |  | < 50 | 
20 | CCS(=O)(=O)N[C@@H]1CC[C@@H](CN2CCC3(CC2)CN(c2ncncc2Oc2ccc(F)cc2C(=O)N(c2ccccc2)c2ccccc2)C3)OC1 [Compound 261] |  |  | < 50 | 
21 | CCN(C(=O)c1cc(F)ccc1Oc1cncnc1N1CC2(CCN(C[C@H]3CC[C@H](NS(=O)(=O)CC)CC3)CC2)C1)C(C)C [SNDX-5613] | ++ (“++” means ≥33% and <66%) |  |  | hERG % Remaining 1 μM ([1]; 1 μM compound): +++ (“+++” means ≥66%); hERG % Remaining 3 μM ([1]; 3 μM compound): +++ (“+++” means ≥66%); hERG % Remaining 10 μM [1]: ++ (“++” means ≥33% and <66%); hERG % Remaining 100 μM ([1]; 100 μM compound): + (“+” means <33%); IC50 [1]: < 25000 nM
